Reference: the supplement of paper PMC10307832

Tests used:
Assay in all cases: relative viability (nuclei count vs DMSO), 5 days (fraction); higher = more cells survive
Erlotinib + Crizotinib = compound: C#Cc1cccc(Nc2ncnc3cc(OCCOC)c(OCCOC)cc23)c1 [Erlotinib] + C[C@@H](Oc1cc(-c2cnn(C3CCNCC3)c2)cnc1N)c1c(Cl)ccc(F)c1Cl [Crizotinib] (partner 1 µM)
How it was run: (§1)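 Lung cancer cell lines were seeded in 1536-well plates and dosed by pin tool the next day, with either a single drug or a fixed anchor-drug dose combined with five library-drug doses (not always all listed) spaced in √10 steps. Five days later, one step fixed the cells and stained their nuclei (final 0.05% Triton X-100, 1% formaldehyde, 1 ug/ml Hoechst), and nuclei were counted on 4× images. Relative viability is the nuclei count in treated wells divided by the count in vehicle wells, and each value is the median of duplicate plates.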

Erlotinib + Foretinib = compound: C#Cc1cccc(Nc2ncnc3cc(OCCOC)c(OCCOC)cc23)c1 [Erlotinib] + COc1cc2c(Oc3ccc(NC(=O)C4(C(=O)Nc5ccc(F)cc5)CC4)cc3F)ccnc2cc1OCCCN1CCOCC1 [Foretinib] (partner 0.25 µM)
How it was run: as §1

Erlotinib + Decitabine = compound: C#Cc1cccc(Nc2ncnc3cc(OCCOC)c(OCCOC)cc23)c1 [Erlotinib] + Nc1ncn([C@H]2C[C@H](O)[C@@H](CO)O2)c(=O)n1 [Decitabine] (partner 2 µM)
How it was run: as §1

Erlotinib + Dasatinib = compound: C#Cc1cccc(Nc2ncnc3cc(OCCOC)c(OCCOC)cc23)c1 [Erlotinib] + Cc1nc(Nc2ncc(C(=O)Nc3c(C)cccc3Cl)s2)cc(N2CCN(CCO)CC2)n1 [Dasatinib] (partner 0.075 µM)
How it was run: as §1

Erlotinib + Trametinib = compound: C#Cc1cccc(Nc2ncnc3cc(OCCOC)c(OCCOC)cc23)c1 [Erlotinib] + CC(=O)Nc1cccc(-n2c(=O)n(C3CC3)c(=O)c3c(Nc4ccc(I)cc4F)n(C)c(=O)c(C)c32)c1 [Trametinib] (partner 0.02 µM)
How it was run: as §1

Cell Line | relative viability (Erlotinib + Crizotinib; first compound 0.02 µM) | relative viability (Erlotinib + Crizotinib; first compound 0.2 µM) | relative viability (Erlotinib + Crizotinib; first compound 0.6325 µM) | relative viability (Erlotinib + Crizotinib; first compound 2 µM) | relative viability (Erlotinib + Foretinib; first compound 0.02 µM) | relative viability (Erlotinib + Foretinib; first compound 0.2 µM) | relative viability (Erlotinib + Foretinib; first compound 0.6325 µM) | relative viability (Erlotinib + Foretinib; first compound 2 µM) | relative viability (Erlotinib + Decitabine; first compound 0.02 µM) | relative viability (Erlotinib + Decitabine; first compound 0.2 µM) | relative viability (Erlotinib + Decitabine; first compound 0.6325 µM) | relative viability (Erlotinib + Decitabine; first compound 2 µM) | relative viability (Erlotinib + Dasatinib; first compound 0.02 µM) | relative viability (Erlotinib + Dasatinib; first compound 0.2 µM) | relative viability (Erlotinib + Dasatinib; first compound 0.6325 µM) | relative viability (Erlotinib + Dasatinib; first compound 2 µM) | relative viability (Erlotinib + Trametinib; first compound 0.02 µM) | relative viability (Erlotinib + Trametinib; first compound 0.2 µM) | relative viability (Erlotinib + Trametinib; first compound 0.6325 µM) | relative viability (Erlotinib + Trametinib; first compound 2 µM)
LK-2 | 0.217 | 0.228 | 0.198 | 0.227 | 1.24 | 0.718 | 1.46 | 1.23 | 0.294 | 0.291 | 0.346 | 0.262 | 0.318 | 0.225 | 0.306 | 0.268 | 0.867 | 0.543 | 0.842 | 0.586
NCI-H460 | 1.08 | 0.763 | 1.26 | 0.74 | 0.973 | 1.02 |  | 0.968 | 0.508 | 0.433 | 0.505 | 0.47 | 0.486 | 0.51 | 0.5 | 0.432 | 0.104 | 0.129 | 0.131 | 0.0721
UMC-11 | 0.644 | 0.62 | 0.84 | 0.585 | 1.04 | 0.973 | 1.08 | 1.08 | 0.652 | 0.597 | 0.636 | 0.567 | 0.512 | 0.438 | 0.482 | 0.424 | 0.738 | 0.637 | 0.916 | 0.71
NCI-H1437 | 1.01 | 1.02 | 1.12 | 0.883 | 1.31 | 1.23 | 1.24 | 1.2 | 0.575 | 0.57 | 0.598 | 0.514 | 0.357 | 0.433 | 0.46 | 0.339 | 0.534 | 0.322 | 0.373 | 0.371
